Molecules are shown by their SMILES. Like-named read-outs stand apart in the source and are kept apart here.

The nature of data set [1]: Acute toxicity in mice (LD50). To be noted: both sexes, mouse, in vivo; CD-1 mice, dosed orally (PO), 7-day acute toxicity. The protocol: Animal toxicological tests. 7-day acute toxicity evaluation was done for selected compounds of this invention on mice and rats. Male and female CD-1 mice (25-30 grams) or SD rats (150-240 grams) were used. The animals were acclimated for 1 week prior to the experiment. The test compounds were dissolved in saline and were dosed orally (PO). Five groups (3 doses plus 1 vehicle and 1 naïve) and 10 mice per group (half male and half female) were used for each compound. All animals were fasted overnight before study. After dosing, animals were placed individually in soft-bedding cages without cage covers. Animal behavioral changes were continuously monitored for 4 hours including autonomic abnormalities (salivation, lacrimation, piloerection, yawning, palpebral closures), neuromuscular abnormalities (posture, gait, fasciculation, convulsions), stereotypical behaviors (sleep, alert, hyper/hypo-activity, slow patterned, fast patterned, restricted, dyskinetic-reactive signs etc.) and lethality. Observations for general health, mortality and moribundity were conducted twice daily after 24 hours. All animals surviving the 7-day observation period were sacrificed by carbon dioxide asphyxiation. Gross necropsies were performed on all animals sacrificed including examinations of main organs and tissue (lung, liver, kidney, heart, intestine, brain).
Acute toxicity for selected compounds of this invention was measured in mice according to the procedure illustrated in the embodiments. Male and female CD-1 mice (n=2-5/gender/compound dose, 25-32 grams) were from Shanghai Sino-British SIPPR/BK Lab Animal Ltd. Table 4 lists toxicology study observations for selected compounds.

The target in data set [2] is T1, acetylcholinesterase (AChE) (Electrophorus electricus, UniProt O42275).
T1 construct: purchased Sigma C2888
As to the kind of experiment: biochemical. To be noted: room temperature, pH 8, acetylthiocholine iodide substrate; read-out: IC50, inhibition of AChE enzyme activity. As for the experimental part: Enzymatic assay. […] The purified/synthesized compounds or compound mixtures were tested. Assay kit was from Invitrogen. AChE enzyme was from Sigma or prepared from human erythrocyte. Acetylcholine and other reagents and buffers were from Sigma. The assay solution consisted of 0.1 M phosphate buffer pH 8, 0.5 mM 5,5′-dithiobis (2-nitrobenzoic acid) (DTNB, Ellman's reagent), 0.01 unit acetylcholinesterase (Sigma Cat. No. C2888), and 0.5 mM acetylthiocholine iodide (ATCI) as the substrate. Test compounds were added to the assay solution and pre-incubated with the enzyme for 5 min at room temperature before addition of the substrate. […] Duplicate sampling was made for each sample. Test compound inhibition to enzyme activity was calculated relative to the positive control without presence of test compound. Negative controls were samples without enzyme.
Experimental procedures were described in the embodiments of this invention.

The nature of data set [3]: in vivo. The following applies: male, Sprague-Dawley, plasma, rat, read-out: T½ (terminal half life) (converted).
The nature of data set [4]: in vivo. The following applies: male, Sprague-Dawley, plasma, rat. As for the experimental part: Pharmacokinetics (PK) measurement. […] A total of 6 male experimental SD rats, approximately 8 weeks of age (180-250 g body weight) were used. For intravenous bolus injection (IV), the animals were placed in a polycarbonate restraint device and dosed via the tail vein. For oral dose (PO), the animals were dosed via oral gavage. […] The plasma samples were extracted by protein precipitation using 4 volume of CH3CN containing fixed concentration of internal standard compound (IS). The concentrations of analyte in plasma were determined using a high performance liquid chromatography/mass spectrometry (HPLC/MS/MS) method (Shimadzu LC-10ADVP and a Leap autosampler, Thermo Hypersil C18, 50 mm×2.1 mm, Mobile phase A: 0.1% formic acid; B: MeCN, Elution rate: 500 μL/min, Column temperature: 25° C., Injection volume: 10 μL, reverse phase elution from 10% organic to 90% organic in 5 min, Applied Biosystems API3000 triple-quadrupole instrument with a Turbo Ions Spray interface). The data acquisition and data processing were done using Analyst 1.4 software.
Experimental animal used were male Sprague-Dawley rats from Shanghai Sino-British SIPPR/BK Lab Animal Ltd, approximately 8 weeks of age (180-250 g body weight).

Setting [5] is: IV (intravenous), read-out: F (bioavailability).
Where [6] appears, read: PO (oral), read-out: F (oral bioavailability).
The mark [7] stands for this setting: SC (subcutaneous), read-out: F (bioavailability).

T1 sequence (O42275 24-633): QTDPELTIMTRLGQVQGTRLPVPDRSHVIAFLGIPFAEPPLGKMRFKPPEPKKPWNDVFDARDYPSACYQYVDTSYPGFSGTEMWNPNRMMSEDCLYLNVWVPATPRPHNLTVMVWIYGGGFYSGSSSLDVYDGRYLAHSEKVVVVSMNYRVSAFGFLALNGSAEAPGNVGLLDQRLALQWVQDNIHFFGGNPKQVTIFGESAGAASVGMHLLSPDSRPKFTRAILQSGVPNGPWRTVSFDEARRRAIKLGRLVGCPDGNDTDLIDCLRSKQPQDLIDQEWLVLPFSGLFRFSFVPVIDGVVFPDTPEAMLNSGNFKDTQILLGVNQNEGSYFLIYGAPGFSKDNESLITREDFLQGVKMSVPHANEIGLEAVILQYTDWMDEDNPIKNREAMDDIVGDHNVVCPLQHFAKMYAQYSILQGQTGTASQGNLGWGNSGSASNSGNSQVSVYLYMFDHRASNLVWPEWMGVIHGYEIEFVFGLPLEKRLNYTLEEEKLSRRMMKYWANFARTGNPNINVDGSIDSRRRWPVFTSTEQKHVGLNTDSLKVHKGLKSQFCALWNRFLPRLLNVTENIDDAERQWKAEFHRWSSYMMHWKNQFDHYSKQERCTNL

Turning to `COc1cc2c(cc1OC)C(=O)C(CC1(F)CCN(Cc3ccccc3)CC1)C2` (stereo not drawn) [IV-4, 2-((1-benzyl-4-fluoropiperidin-4-yl)methyl)-5,6-dimethoxy-2,3-dihydro-1H-inden-1-one], the 50% lethal dose (LD50) (as a rule, the dose expected to kill half of the subjects tested) at 7 day in data set [1] came out at 30 mg/kg. Moreover, the 50% inhibitory concentration (IC50) (in general, the point on the concentration scale where inhibition reaches its midpoint) in data set [2] stood at 1.04 nM.
In data set [1], `COc1cc2c(cc1OC)C(=O)C(F)(CC1(F)CCN(Cc3ccccc3)CC1)C2` (stereo not drawn) [IV-8, 2-((1-benzyl-4-fluoropiperidin-4-yl)methyl)-2-fluoro-5,6-dimethoxy-2,3-dihydro-1H-inden-1-one] had an LD50 at 7 day of more than 45 mg/kg. Also, the half-life – broadly, how long it takes for the measured level to halve – was 8.5 h in the data set “in vivo [3]” (IV (intravenous)), 12.7 h in “in vivo [3]” (PO (oral)) and 6.8 h in the data set “in vivo [3]” (SC (subcutaneous)). The results for the bioavailability in “in vivo [4]” (setting [5]), in the data set “in vivo [4]” (setting [6]) and in “in vivo [4]” (setting [7]) were 100%, 37.2% and 70.5%, respectively. For the same compound, the concentration for half-maximal inhibition (IC50) in data set [2] is 9.07 nM.
`COc1cc2c(cc1OC)C(=O)C(F)(CC1(F)CCN(Cc3ccc(F)cc3)CC1)C2` (stereo not drawn) [IV-11, 2-fluoro-2-((4-fluoro-1-(4-fluorobenzyl)piperidin-4-yl)methyl)-5,6-dimethoxy-2,3-dihydro-1H-inden-1-one]: the LD50 at 7 day in data set [1] is more than 50 mg/kg. The half-life was 3.1 h in the data set “in vivo [3]” (IV (intravenous)), 11.8 h in the data set “in vivo [3]” (PO (oral)) and 7.9 h in “in vivo [3]” (SC (subcutaneous)). For the same compound, the bioavailability (in general, the share of a dose that reaches the circulation, judged against a reference dose that is usually intravenous) in the data set “in vivo [4]” (setting [5]) was 100%; in the data set “in vivo [4]” (setting [6]), 28.2%; in “in vivo [4]” (setting [7]), 100%. The half-inhibitory concentration (IC50) in data set [2] was found to be 28.2 nM.

Source of the values: US9249098B2 (priority 2012, dated 2016).
